# Measurements: US20250255867A1 (Kadmon Corporation, LLC, priority 2022, published 2025)
# Details: Cohort 1 200 mg QD
# Description: All responses were assessed by the investigators.
# Reported Adverse Events. […] All-cause mortality data collected during the study were assessed for all enrolled participants. Disease progression related death was not reported as AE.
# Number of Participants With Treatment-emergent Adverse Events (TEAEs), and Treatment-emergent Serious Adverse Events (TESAEs). […] TEAEs included both SAEs and non-SAEs. […] Analysis was performed on safety population which included all participants who received at least 1 dose of study medication.
compound,measurement,value
"CC(C)NC(=O)COc1cccc(-c2nc(Nc3ccc4[nH]ncc4c3)c3ccccc3n2)c1 [Belumosudil, 2-{3-[4-(1H-indazol-5-ylamino)-2-quinazolinyl]phenoxy}-N-(propan-2-yl) acetamide]",Hypogonadism: # Events,1
same,Hypogonadism: Affected/At Risk,1/17
same,Hypogonadism: Affected/At Risk (%),(5.88%)
same,Hypokalaemia: # Events,1
same,Hypokalaemia: Affected/At Risk,1/17
same,Hypokalaemia: Affected/At Risk (%),(5.88%)
same,Hypomagnesaemia: # Events,1
same,Hypomagnesaemia: Affected/At Risk,1/17
same,Hypomagnesaemia: Affected/At Risk (%),(5.88%)
same,Hyponatraemia: # Events,1
same,Hyponatraemia: Affected/At Risk,1/17
same,Hyponatraemia: Affected/At Risk (%),(5.88%)
same,Hypophosphataemia: # Events,1
same,Hypophosphataemia: Affected/At Risk,1/17
same,Hypophosphataemia: Affected/At Risk (%),(5.88%)
same,Hypothermia: # Events,0
same,Hypothermia: Affected/At Risk,0/17
same,Hypothermia: Affected/At Risk (%),(0%)
same,Hypothyroidism: # Events,2
same,Hypothyroidism: Affected/At Risk,1/17
same,Hypothyroidism: Affected/At Risk (%),(5.88%)
same,Hypoxia: # Events,1
same,Hypoxia: Affected/At Risk,1/17
same,Hypoxia: Affected/At Risk (%),(5.88%)
same,Impaired healing: # Events,1
same,Impaired healing: Affected/At Risk,1/17
same,Impaired healing: Affected/At Risk (%),(5.88%)
same,Influenza like illness: # Events,1
same,Influenza like illness: Affected/At Risk,1/17
same,Influenza like illness: Affected/At Risk (%),(5.88%)
same,Influenza: # Events,2
same,Influenza: Affected/At Risk,2/17
same,Influenza: Affected/At Risk (%),(11.76%)
same,Insomnia: # Events,0
same,Insomnia: Affected/At Risk,0/17
same,Insomnia: Affected/At Risk (%),(0%)
same,Irritability: # Events,1
same,Irritability: Affected/At Risk,1/17
same,Irritability: Affected/At Risk (%),(5.88%)
same,Joint range of motion decreased: # Events,0
same,Joint range of motion decreased: Affected/At Risk,0/17
same,Joint range of motion decreased: Affected/At Risk (%),(0%)
same,Lacrimation increased: # Events,0
same,Lacrimation increased: Affected/At Risk,0/17
same,Lacrimation increased: Affected/At Risk (%),(0%)
same,Leukaemia recurrent: # Events,1
same,Leukaemia recurrent: Affected/At Risk,1/17
same,Leukaemia recurrent: Affected/At Risk (%),(5.88%)
same,Leukocytosis: # Events,1
same,Leukocytosis: Affected/At Risk,1/17
same,Leukocytosis: Affected/At Risk (%),(5.88%)
same,Ligament sprain: # Events,1
same,Ligament sprain: Affected/At Risk,1/17
same,Ligament sprain: Affected/At Risk (%),(5.88%)
same,Limb injury: # Events,1
same,Limb injury: Affected/At Risk,1/17
same,Limb injury: Affected/At Risk (%),(5.88%)
same,Macular degeneration: # Events,0
same,Macular degeneration: Affected/At Risk,0/17
same,Macular degeneration: Affected/At Risk (%),(0%)
same,Migraine: # Events,0
same,Migraine: Affected/At Risk,0/17
same,Migraine: Affected/At Risk (%),(0%)
same,Muscle spasms: # Events,1
same,Muscle spasms: Affected/At Risk,1/17
same,Muscle spasms: Affected/At Risk (%),(5.88%)
same,Muscle spasticity: # Events,1
same,Muscle spasticity: Affected/At Risk,1/17
same,Muscle spasticity: Affected/At Risk (%),(5.88%)
same,Muscular weakness: # Events,6
same,Muscular weakness: Affected/At Risk,4/17
same,Muscular weakness: Affected/At Risk (%),(23.53%)
same,Musculoskeletal chest pain: # Events,1
same,Musculoskeletal chest pain: Affected/At Risk,1/17
same,Musculoskeletal chest pain: Affected/At Risk (%),(5.88%)
same,Myalgia: # Events,2
same,Myalgia: Affected/At Risk,1/17
same,Myalgia: Affected/At Risk (%),(5.88%)
same,Nail disorder: # Events,1
same,Nail disorder: Affected/At Risk,1/17
same,Nail disorder: Affected/At Risk (%),(5.88%)
same,Nasal congestion: # Events,3
same,Nasal congestion: Affected/At Risk,3/17
same,Nasal congestion: Affected/At Risk (%),(17.65%)
same,Nausea: # Events,10
same,Nausea: Affected/At Risk,6/17
same,Nausea: Affected/At Risk (%),(35.29%)
same,Neck pain: # Events,1
same,Neck pain: Affected/At Risk,1/17
same,Neck pain: Affected/At Risk (%),(5.88%)
same,Nephrotic syndrome: # Events,1
same,Nephrotic syndrome: Affected/At Risk,1/17
same,Nephrotic syndrome: Affected/At Risk (%),(5.88%)
same,Neuropathy peripheral: # Events,0
same,Neuropathy peripheral: Affected/At Risk,0/17
same,Neuropathy peripheral: Affected/At Risk (%),(0%)
same,Neutrophil count decreased: # Events,1
same,Neutrophil count decreased: Affected/At Risk,1/17
same,Neutrophil count decreased: Affected/At Risk (%),(5.88%)
same,Nocturia: # Events,1
same,Nocturia: Affected/At Risk,1/17
same,Nocturia: Affected/At Risk (%),(5.88%)
same,Non-cardiac chest pain: # Events,0
same,Non-cardiac chest pain: Affected/At Risk,0/17
same,Non-cardiac chest pain: Affected/At Risk (%),(0%)
same,Obesity: # Events,2
same,Obesity: Affected/At Risk,2/17
same,Obesity: Affected/At Risk (%),(11.76%)
same,Oedema peripheral: # Events,3
same,Oedema peripheral: Affected/At Risk,3/17
same,Oedema peripheral: Affected/At Risk (%),(17.65%)
same,Oedema: # Events,0
same,Oedema: Affected/At Risk,0/17
same,Oedema: Affected/At Risk (%),(0%)
same,Oesophageal ulcer: # Events,0
same,Oesophageal ulcer: Affected/At Risk,0/17
same,Oesophageal ulcer: Affected/At Risk (%),(0%)
same,Oral candidiasis: # Events,3
same,Oral candidiasis: Affected/At Risk,2/17
same,Oral candidiasis: Affected/At Risk (%),(11.76%)
same,Oropharyngeal pain: # Events,1
same,Oropharyngeal pain: Affected/At Risk,1/17
same,Oropharyngeal pain: Affected/At Risk (%),(5.88%)
same,Orthopnoea: # Events,1
same,Orthopnoea: Affected/At Risk,1/17
same,Orthopnoea: Affected/At Risk (%),(5.88%)
same,Osteonecrosis: # Events,1
same,Osteonecrosis: Affected/At Risk,1/17
same,Osteonecrosis: Affected/At Risk (%),(5.88%)
same,Osteopenia: # Events,0
same,Osteopenia: Affected/At Risk,0/17
same,Osteopenia: Affected/At Risk (%),(0%)
same,Osteoporosis: # Events,0
same,Osteoporosis: Affected/At Risk,0/17
same,Osteoporosis: Affected/At Risk (%),(0%)
same,Overdose: # Events,1
same,Overdose: Affected/At Risk,1/17
